Measurements from ChEMBL document CHEMBL1122152, “Synthesis of pseudo cofactor analogues as potential inhibitors of the folate enzymes” (J Med Chem, 1982).
Values joined by “and” are separate entries in the source; they are usually repeats but may differ in a detail not shown here. Equal entries are not always repeated.

What was measured:
[1] = target: T1, C-1-tetrahydrofolate synthase, cytoplasmic (Homo sapiens) (UniProt P11586); test: Percent inhibition was measured against 5,10-Methylene Tetrahydrofolate Cyclohydrolase (A,porcine liver) enzyme.; details: Sus scrofa; target entry is the homologue from another species; concentration not given here
T1 sequence (whole entry): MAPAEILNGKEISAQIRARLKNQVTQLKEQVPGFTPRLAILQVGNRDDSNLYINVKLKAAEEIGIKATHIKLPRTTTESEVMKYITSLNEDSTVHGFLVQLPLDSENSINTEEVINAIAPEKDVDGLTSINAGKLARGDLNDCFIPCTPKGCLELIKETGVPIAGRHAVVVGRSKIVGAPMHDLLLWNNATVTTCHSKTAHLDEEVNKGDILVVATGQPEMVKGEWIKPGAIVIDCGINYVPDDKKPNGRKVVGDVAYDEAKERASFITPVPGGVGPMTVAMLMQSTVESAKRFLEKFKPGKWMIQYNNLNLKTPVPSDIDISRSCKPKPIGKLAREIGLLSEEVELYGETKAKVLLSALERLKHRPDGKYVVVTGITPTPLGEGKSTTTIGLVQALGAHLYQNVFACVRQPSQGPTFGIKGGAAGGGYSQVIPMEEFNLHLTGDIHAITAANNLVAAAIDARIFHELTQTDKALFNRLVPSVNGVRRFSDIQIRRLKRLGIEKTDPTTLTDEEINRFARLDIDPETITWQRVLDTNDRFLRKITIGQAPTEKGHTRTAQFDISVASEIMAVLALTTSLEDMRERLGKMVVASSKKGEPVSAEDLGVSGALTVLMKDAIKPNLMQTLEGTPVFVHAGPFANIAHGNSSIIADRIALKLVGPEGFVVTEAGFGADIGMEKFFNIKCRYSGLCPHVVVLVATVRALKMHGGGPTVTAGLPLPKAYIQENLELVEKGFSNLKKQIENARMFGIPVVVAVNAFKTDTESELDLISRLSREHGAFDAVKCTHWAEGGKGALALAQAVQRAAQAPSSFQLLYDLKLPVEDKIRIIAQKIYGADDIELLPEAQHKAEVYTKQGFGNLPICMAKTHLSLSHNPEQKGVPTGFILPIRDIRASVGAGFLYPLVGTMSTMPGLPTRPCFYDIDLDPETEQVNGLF

[2] = target: T1, C-1-tetrahydrofolate synthase, cytoplasmic (Homo sapiens); test: Percent inhibition was measured against 5,10-Methylene Tetrahydrofolate Cyclohydrolase (porcine liver) enzyme.; details: Sus scrofa; target entry is the homologue from another species; concentration not given here
Sus scrofa [3] = species: Sus scrofa; test: Percent inhibition was measured against 5,10-Methylene Tetrahydrofolate Reductase (porcine kidney) enzyme.; details: concentration not given here
Columba livia [4] = test: Percent inhibition was measured against glycinamide ribotide transformylase (pigeon liver) enzyme.; details: concentration not given here
Sus scrofa [5] = species: Sus scrofa; test: Percent inhibition was measured against formyl tetrahydrofolate synthase (porcine liver) enzyme.; details: concentration not given here
Columba livia [6] = test: Percent inhibition was measured against 5-amino-4-imidazolecarboxamide ribotide transformylase(pigeon liver) enzyme.; details: concentration not given here
Sus scrofa [7] = species: Sus scrofa; test: Percent inhibition was measured against Serine transhydroxymethylase (porcine liver) enzyme. at 10E-4 M inhibitory concentration
[8] = target: Thymidylate synthase (Homo sapiens) (UniProt P04818); test: Percent inhibition was measured against Thymidylate synthase (calf thymus) enzyme; details: concentration not given here
Chain of Thymidylate synthase (Homo sapiens) (P04818 2-313 limits assumed): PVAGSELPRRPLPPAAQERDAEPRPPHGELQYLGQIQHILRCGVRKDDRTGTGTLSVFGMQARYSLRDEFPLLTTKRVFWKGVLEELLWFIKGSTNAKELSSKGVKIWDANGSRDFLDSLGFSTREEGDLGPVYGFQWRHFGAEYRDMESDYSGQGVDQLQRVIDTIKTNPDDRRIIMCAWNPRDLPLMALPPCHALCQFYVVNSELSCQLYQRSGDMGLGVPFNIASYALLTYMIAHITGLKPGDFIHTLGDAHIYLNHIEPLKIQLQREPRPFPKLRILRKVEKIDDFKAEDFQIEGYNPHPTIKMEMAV

Sus scrofa [9] = species: Sus scrofa; test: Percent inhibition was measured against methionine synthetase (porcine kidney)enzyme.; details: concentration not given here
[10] = target: Dihydrofolate reductase (Bos taurus) (UniProt P00376); test: Percent inhibition was measured against Dihydrofolate reductase (bovine liver) enzyme at 10E-4 M inhibitory concentration
Chain of Dihydrofolate reductase (Bos taurus) (P00376 whole entry, looked up): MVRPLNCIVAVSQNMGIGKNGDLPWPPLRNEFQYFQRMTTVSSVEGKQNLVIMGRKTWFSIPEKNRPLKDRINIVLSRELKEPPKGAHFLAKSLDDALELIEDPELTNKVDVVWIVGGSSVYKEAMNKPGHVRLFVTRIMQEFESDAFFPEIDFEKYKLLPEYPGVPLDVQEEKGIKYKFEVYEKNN

[11] = target: T1, C-1-tetrahydrofolate synthase, cytoplasmic (Homo sapiens); test: Percent inhibition was measured against 5,10-Methylene Tetrahydrofolate Cyclohydrolase (L1210 tumor tissue) enzyme at 10E-4 M inhibitory concentration
[12] = target: T1, C-1-tetrahydrofolate synthase, cytoplasmic (Homo sapiens); test: Percent inhibition was measured against 5,10-Methylene Tetrahydrofolate Cyclohydrolase (L1210 tumor tissue) enzyme at 10E-6 M inhibitory concentration; details: Sus scrofa
[13] = target: T1, C-1-tetrahydrofolate synthase, cytoplasmic (Homo sapiens); test: Percent inhibition was measured against 5,10-Methylene Tetrahydrofolate Cyclohydrolase (porcine liver) enzyme at 10E-5 M inhibitory concentration; details: Sus scrofa; target entry is the homologue from another species
[14] = target: T1, C-1-tetrahydrofolate synthase, cytoplasmic (Homo sapiens); test: Percent inhibition was measured against 5,10-Methylene Tetrahydrofolate Cyclohydrolase (porcine liver) enzyme at 10E-6 M inhibitory concentration; details: Sus scrofa; target entry is the homologue from another species
Sus scrofa [15] = species: Sus scrofa; test: Percent inhibition was measured against 5,10-Methylene Tetrahydrofolate Reductase (porcine kidney) enzyme at 10E-4 M inhibitory concentration
Columba livia [16] = test: Percent inhibition was measured against 5-amino-4-imidazolecarboxamide ribotide transformylase(pigeon liver) enzyme at 10E-5 M inhibitory concentration
Sus scrofa [17] = species: Sus scrofa; test: (§1) Percent inhibition was measured against 5,10-Methylene Tetrahydrofolate Cyclohydrolase (porcine liver) enzyme at 10E-4 M inhibitory concentration
Sus scrofa [18] = species: Sus scrofa; test: Percent inhibition was measured against methionine synthetase (porcine kidney)enzyme at 10E-4 M inhibitory concentration
Thymidylate synthase = test: Percent inhibition was measured against Thymidylate synthase (calf thymus) enzyme at 10E-4 M inhibitory concentration
Columba livia [19] = test: Percent inhibition was measured against glycinamide ribotide transformylase (pigeon liver) enzyme at 10E-4 M inhibitory concentration
[20] = tested on: formyltetrahydrofolate synthetase (Mus musculus); test: Percent inhibition was measured against formyl tetrahydrofolate synthase (L1210 tumor tissue) enzyme at 10E-4 M inhibitory concentration
[21] = target: T1, C-1-tetrahydrofolate synthase, cytoplasmic (Homo sapiens); test: as §1; details: Sus scrofa; target entry is the homologue from another species
[22] = target: T1, C-1-tetrahydrofolate synthase, cytoplasmic (Homo sapiens); test: as §1; details: Sus scrofa; target entry is the homologue from another species; remark: listed apart in the source
Sus scrofa [23] = species: Sus scrofa; test: Percent inhibition was measured against formyl tetrahydrofolate synthase (porcine liver) enzyme at 10E-4 M inhibitory concentration
Columba livia [24] = test: Percent inhibition was measured against 5-amino-4-imidazolecarboxamide ribotide transformylase(pigeon liver) enzyme at 10E-4 M inhibitory concentration
[25] = Percent inhibition was measured against 5,10-Methylene Tetrahydrofolate Cyclohydrolase (L1210 tumor tissue) enzyme at 10E-6 M inhibitory concentration
[26] = target: T1, C-1-tetrahydrofolate synthase, cytoplasmic (Homo sapiens); test: Percent inhibition was measured against 5,10-Methylene Tetrahydrofolate Cyclohydrolase (L1210 tumor tissue) enzyme at 10E-5 M inhibitory concentration
[27] = target: T1, C-1-tetrahydrofolate synthase, cytoplasmic (Homo sapiens); test: Percent inhibition was measured against 5,10-Methylene Tetrahydrofolate Cyclohydrolase (porcine liver) enzyme at 10E-7 M inhibitory concentration; details: Sus scrofa; target entry is the homologue from another species
Sus scrofa [28] = species: Sus scrofa; test: Percent inhibition was measured against Serine transhydroxymethylase (porcine liver) enzyme at 10E-4 M inhibitory concentration

Structure (SMILES)	inhibition (Sus scrofa [7])	inhibition [10]	inhibition [11]	inhibition [12]	inhibition [14]	inhibition (Sus scrofa [15])	inhibition (Columba livia [16])	inhibition (Sus scrofa [18])	inhibition (Thymidylate synthase)	inhibition (Columba livia [19])	inhibition [20]	inhibition [22]	inhibition (Sus scrofa [23])	inhibition (Columba livia [24])	other results
Nc1nc2c(c(=O)[nH]1)N1C=[N+](c3ccc(C(=O)NC(CCC(=O)O)C(=O)O)cc3)CC1CN2 (stereo not drawn)	10%	15%	–	–	–	–	–	–	–	–	–	–	–	–	inhibition [1]: 9%; inhibition [2]: 0%; inhibition (Sus scrofa [3]): 40%; inhibition (Columba livia [4]): 0%; inhibition (Sus scrofa [5]): 0%; inhibition (Columba livia [6]): 19%; inhibition [8]: 0%; inhibition (Sus scrofa [9]): 22%
N=C1N(c2ccc(C(=O)NC(CCC(=O)O)C(=O)O)cc2)CC2CNc3nc(N)[nH]c(=O)c3N12 (stereo not drawn)	30%	0%	24%	–	–	0%	–	4%	0%	0%	12%	24%	21%	13%	inhibition [21]: 61%; inhibition [25]: 43%
Nc1nc2c(c(=O)[nH]1)N1CCN(c3ccc(C(=O)NC(CCC(=O)O)C(=O)O)cc3)CC1CN2 (stereo not drawn)	10%	13%	–	–	–	20%	–	10%	16%	0%	–	3% and 0%	0%	33%	–

Continued, in another order:

inhibition (Sus scrofa [7])	inhibition [10]	inhibition [11]	inhibition [12]	inhibition [14]	inhibition (Sus scrofa [15])	inhibition (Columba livia [16])	inhibition (Sus scrofa [18])	inhibition (Thymidylate synthase)	inhibition (Columba livia [19])	inhibition [20]	inhibition [22]	inhibition (Sus scrofa [23])	inhibition (Columba livia [24])	Structure (SMILES)	other results
0%	30%	12%	50%	24%	55%	37%	5%	8%	11%	13%	–	–	–	Nc1nc2c(c(=O)[nH]1)N1C(=S)N(c3ccc(C(=O)NC(CCC(=O)O)C(=O)O)cc3)CC1CN2 (stereo not drawn)	inhibition [13]: 27%; inhibition (Sus scrofa [17]): 24%
–	16%	–	48%	24%	41%	0%	2%	25%	0%	16%	–	15%	–	Nc1nc2c(c(=O)[nH]1)N1C(=O)N(c3ccc(C(=O)NC(CCC(=O)O)C(=O)O)cc3)CC1CN2 (stereo not drawn)	inhibition [26]: 51%; inhibition [27]: 48%; inhibition (Sus scrofa [28]): 40%
